According to ChEMBL document CHEMBL1201862, “PubChem BioAssay data set” (2004):
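Exposure lasted 48 hours, with cells grown in 96-well plates and compounds tested at five concentrations. GI50: concentration for 50% inhibition of growth.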 The source made the active and inactive calls. Rule as the data show it: active = GI50 up to about 1.1 µM and inactive = higher.

Key:
Assay in all cases: inhibition of tumour cell growth, NCI panel, 48 h
[1] = system: TK-10
[2] = system: 786-0
[3] = system: UACC-257
[4] = system: HL-60
[5] = system: NCI/ADR-RES
[6] = system: SR
[7] = system: COLO 205
[8] = system: Malme-3M
[9] = system: SNB-75
[10] = system: HCC 2998
[11] = system: OVCAR-4
[12] = system: DU-145
[13] = system: PC-3
[14] = system: MDA-MB-435
[15] = system: SF-539
[16] = system: HCT-15
[17] = system: SN12C
[18] = system: U-251
[19] = system: LOX IMVI
[20] = system: SK-OV-3

Structure (SMILES) | GI50 [1] | GI50 [2] | GI50 [3] | GI50 [4] | GI50 [5] | GI50 [6] | GI50 [7] | GI50 [8] | GI50 [9] | GI50 [10] | GI50 [11] | GI50 [12] | GI50 [13] | GI50 [14] | GI50 [15] | GI50 [16] | GI50 [17] | GI50 [18] | GI50 [19] | GI50 [20]
CCN(CC)CCCNc1nc2ccccc2[n+]([O-])n1 | > 100 µM (inactive) | > 100 µM (inactive) | > 100 µM (inactive) | > 100 µM (inactive) | > 100 µM (inactive) | > 100 µM (inactive) | > 100 µM (inactive) | > 100 µM (inactive) | 64.1 µM (inactive) | > 100 µM (inactive) | > 100 µM (inactive) | > 100 µM (inactive) | > 100 µM (inactive) | > 100 µM (inactive) | > 100 µM (inactive) | > 100 µM | > 100 µM (inactive) | > 100 µM (inactive) |  | 
C[n+]1ccc2/c(=C\C#N)c3ccccc3n21 | 22 µM (inactive) | 52.2 µM (inactive) | < 0.01 µM (active) | 17.3 µM (inactive) | > 100 µM (inactive) | 18.2 µM (inactive) | 19.7 µM (inactive) | 17.1 µM (inactive) |  | 19 µM (inactive) | 21.1 µM (inactive) | 15.8 µM (inactive) | 25.9 µM (inactive) | 23.3 µM (inactive) |  | > 100 µM | 27.9 µM (inactive) | 12.9 µM (inactive) | 15.9 µM (inactive) | 30.6 µM (inactive)
COc1ccc(/C=N/N2C(=O)c3c(N)c(C#N)c(-c4ccccc4)c(-c4ccccc4)c3C2=O)cc1 | 42.4 µM (inactive) | 64.6 µM (inactive) | > 100 µM (inactive) | > 100 µM (inactive) | > 100 µM (inactive) | > 100 µM (inactive) | > 100 µM (inactive) | > 100 µM (inactive) | 88.7 µM (inactive) | > 100 µM (inactive) | 99.8 µM (inactive) | > 100 µM (inactive) | > 100 µM (inactive) | > 100 µM (inactive) | > 100 µM (inactive) | > 100 µM | > 100 µM (inactive) | 98.6 µM (inactive) | > 100 µM (inactive) | 
O=C(/C=C/c1ccc(-c2ccccc2)cc1)NCc1ccc(C(=O)NCCc2ccccc2)cc1 | > 100 µM (inactive) | 59.2 µM (inactive) | > 100 µM (inactive) |  | > 100 µM (inactive) | 44.8 µM (inactive) | > 100 µM (inactive) | 31.6 µM (inactive) | 49.3 µM (inactive) | > 100 µM (inactive) | > 100 µM (inactive) | > 100 µM (inactive) | > 100 µM (inactive) | > 100 µM (inactive) | 12.3 µM (inactive) | > 100 µM | > 100 µM (inactive) | 65.3 µM (inactive) | 41.1 µM (inactive) | > 100 µM (inactive)
COC(=S)OC1CC(n2cnc3c(=O)[nH]cnc32)OC1CO[Si](C)(C)C(C)(C)C (stereo unspecified) | > 100 µM (inactive) | > 100 µM (inactive) | > 100 µM (inactive) | > 100 µM (inactive) | > 100 µM (inactive) | > 100 µM (inactive) | > 100 µM (inactive) | > 100 µM (inactive) | > 100 µM (inactive) |  | > 100 µM (inactive) | > 100 µM (inactive) | > 100 µM (inactive) | > 100 µM (inactive) | > 100 µM (inactive) | > 100 µM | > 100 µM (inactive) | > 100 µM (inactive) | > 100 µM (inactive) | > 100 µM (inactive)
CN(C)CCCNC(=O)c1cc(NC(=O)c2cc(NC(=O)[C@H]3C[C@@H]3C(=O)Nc3cc(C(=O)Nc4cc(C(=O)NCCCN(C)C)n(C)c4)n(C)c3)cn2C)cn1C | > 10 µM (inactive) | > 100 µM (inactive) | > 100 µM (inactive) | > 100 µM (inactive) | > 100 µM (inactive) | > 100 µM (inactive) | > 100 µM (inactive) | > 100 µM (inactive) | > 100 µM (inactive) | > 100 µM (inactive) | > 100 µM (inactive) | > 100 µM (inactive) | > 100 µM (inactive) | > 100 µM (inactive) | > 100 µM (inactive) | > 100 µM | > 100 µM (inactive) | > 100 µM (inactive) | > 100 µM (inactive) | 
O=C1OCCC12CN(Cc1ccccc1)N=N2 (stereo unspecified) | > 100 µM (inactive) | > 100 µM (inactive) |  |  | > 100 µM (inactive) | 13.2 µM (inactive) | > 100 µM (inactive) | 12.1 µM (inactive) |  | > 100 µM (inactive) | > 100 µM (inactive) | 87.7 µM (inactive) | > 100 µM (inactive) | > 100 µM (inactive) | > 100 µM (inactive) | > 100 µM | > 100 µM (inactive) | > 100 µM (inactive) |  | > 100 µM (inactive)
C[C@H](NC1=CC(=O)C(N[C@@H](C)[C@H](O)c2ccccc2)=CC1=O)[C@H](O)c1ccccc1 | 55.7 µM (inactive) | > 100 µM (inactive) | > 100 µM (inactive) | > 100 µM (inactive) | 92.7 µM (inactive) | 14.6 µM (inactive) | 68.5 µM (inactive) | 67.6 µM (inactive) |  |  | > 100 µM (inactive) | > 100 µM (inactive) | 43.1 µM (inactive) | 81.5 µM (inactive) | 63.8 µM (inactive) | 68.9 µM | > 100 µM (inactive) | > 100 µM (inactive) | > 100 µM (inactive) | 69 µM (inactive)
